One may read the IC50 as the point on the concentration scale where inhibition reaches its midpoint.

The values that follow come from patent publication US10316080B2, “Protein-polymer-drug conjugates” (priority 2013, dated 2019).

One series has as its system NCI-N87 cells. The series can be described thus: Cell viability assay (Cell Titer-Glo). The note with it: 72 h incubation. The class given is cell-based. (In ATP-based viability assays light output follows the ATP content of the culture.)
Another series deals with JIMT1 cells. The series can be described thus: Cell viability assay (Cell Titer-Glo). The class given is cell-based. To be noted: 72 h incubation; HER2 medium expression.
The test system of the next series is BT474 cells. Briefly: Cell viability assay (Cell Titer-Glo). The class given is cell-based. To be noted: 72 h incubation.
A further series deals with hErbB2 (Homo sapiens, UniProt P04626). Briefly: Ligand binding by surface plasmon resonance (SPR). To be noted: 25° C., immobilized hErbB2. On the technique in general: SPR reads the build-up and loss of mass on a sensor chip optically.
The next series relates to MCF7 cells. Briefly: Cell viability assay (Cell Titer-Glo). The class given is cell-based. The note with it: 72 h incubation; HER2 low expressing cells.
The next series deals with SKBR3 cells. The series can be described thus: Cell viability assay (Cell Titer-Glo). The class given is cell-based. To be noted: 72 h incubation.
In a further series the test system is A431 cells. Briefly: Cell viability assay (Cell Titer-Glo). The class given is cell-based. The note with it: first of two experiments (first value in cell).
Series [1] in a line: Mouse tissue distribution after administration of PBRM-polymer-drug conjugates. The class given is in vivo, mice.
Experimental: To determine the concentration of the free drug in the sample, the acidified sample was treated with acetonitrile. The free drug was extracted from the supernatant and analyzed by LC-MS/MS.
Female CB-17 SCID mice were inoculated subcutaneously with BT474 tumors (n=4 for each group).
At 48 hours post administration, the mice were sacrificed and the blood was collected by terminal cardiac.
Another series concerns HL-60 cells. Briefly: Cell viability assay (Cell Titer-Glo). The class given is cell-based. To be noted: 72 h incubation; CD33 expressing cells. How it is done:
Dose response curves were generated using SoftMax Pro software. IC50 values were determined from four-parameter curve fitting.
CD33 expressing cells HL-60 were passed at a density of 5,000 cells per well and treated with PBRM-polymer-drug conjugate on the same day. After 72 h incubation, the cells were analyzed using the same procedure described above.

In the next series the test system is LLC1 cells. The series can be described thus: Cell viability assay (Cell Titer-Glo). The class given is cell-based. To be noted: 5T4 negative control cells; second of two experiments.

Experimental for A431 cells: (§1) PBRM-polymer-drug conjugates were evaluated for their antiproliferation properties in tumor cell lines in vitro using Cell Titer-Glo (Promega Corp). Cells were plated in black walled 96-well plate and allowed to adhere overnight at 37° C. in a humidified atmosphere of 5% CO2. SKBR3, BT474, NCI-N87 cells (HER2 expressing cells), MCF7 cells (HER2 low expressing levels cells) and JIMT1 cells (HER2 medium expression level cells) were plated at a density of 5,000 cells per well. The next day the medium was replaced with 50 μL fresh medium and 50 μL of 2× stocks of PBRM-polymer-drug conjugate, drug polymer conjugate or drug were added to appropriate wells, mixed and incubated for 72 h. Cell Titer-Glo reagent was added to the wells at room temperature and the luminescent signal was measured after 10 min using a SpectraMax M5 plate reader (Molecular Devices). Dose response curves were generated using SoftMax Pro software. IC50 values were determined from four-parameter curve fitting.
Experimental for BT474 cells: as §1
Experimental for JIMT1 cells: as §1
Experimental for LLC1 cells: as §1
Experimental for MCF7 cells: as §1
Experimental for NCI-N87 cells: as §1
Experimental for SKBR3 cells: as §1
Experimental for hErbB2: The kinetic binding of the PBRM-polymer-drug conjugate to an immobilized receptor was determined by BIAcore SPR.

In the case of ado-trastuzumab emtansine [Kadcyla ®], the IC50 in the series with NCI-N87 cells came out at 0.09 nM; in the series with JIMT1 cells it was 18 nM; with BT474 cells, 2.4 nM; in the series with MCF7 cells it was 38.6 nM; in the series on SKBR3 cells it was 0.23 nM. Also, the “ka (association rate constant)” value at hErbB2 was 4.61 ± 0.2 × 10^5 M^−1s^−1. The “kd (dissociation rate constant)” value on hErbB2 was 3.17 ± 0.9 × 10^−5 s^−1.
On to `CC[C@H](C)[C@@H]([C@@H](CC(=O)N1CCC[C@H]1[C@H](OC)[C@@H](C)C(=O)N[C@@H](Cc1ccccc1)C(=O)NCCCO)OC)N(C)C(=O)[C@@H](NC(=O)[C@H](C(C)C)N(C)C)C(C)C` [AF-HPA, auristatin F hydroxypropyl amide], for which the IC50 in the series on A431 cells is 0.7 nM; with NCI-N87 cells it was 0.42 nM; with JIMT1 cells, 0.86 nM; with HL-60 cells, 4.8 nM; in the series on BT474 cells it was 1.01 nM; in the series with LLC1 cells, more than 100 nM. This molecule gave an IC50 with MCF7 cells of 4.4 nM. In addition, in series [1] (in plasma), the “Metabolism of released unconjugated AF-HPA in plasma” value is “not converted to AF”. Moreover, in series [1] (in tissue), the “Metabolism of released unconjugated AF-HPA in tissue” value is listed as “further metabolized to AF”.
